Measurements reported in PubChem BioAssay AID248 (DTP/NCI, 2004).
Values joined by “and” are separate entries in the source; they are usually repeats but may differ in a detail not shown here. Equal values may be shown once. Inconclusive results and toxic doses are left out. No stated cut-off is given here; in the data, active means T/C of 150% or more; inactive means T/C below 125%.

Test system: L1210 leukemia ip in BDF1 mice, survival T/C
Assay: NCI In Vivo Anticancer Drug Screen. Data for tumor model L1210 Leukemia (intraperitoneal) in B6D2F1 (BDF1) mice
Settings: endpoint: mean survival time, higher = longer survival
Method in brief: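 Each compound was tested against a transplantable tumor grown in mice. The endpoint was survival, with treated animals benchmarked against vehicle controls as a simple ratio.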

[1] = dose: 100.0 mg/kg/injection, schedule: Q01DX009 (ip), vehicle: Klucel (hydroxypropylcellulose) (HPC)
[2] = dose: 100.0 mg/kg/injection, schedule: Q04DX003 (ip), vehicle: Klucel (hydroxypropylcellulose) (HPC)
[3] = dose: 200.0 mg/kg/injection, schedule: Q01DX009 (ip), vehicle: Klucel (hydroxypropylcellulose) (HPC)
[4] = dose: 200.0 mg/kg/injection, schedule: Q04DX003 (ip), vehicle: Klucel (hydroxypropylcellulose) (HPC)
[5] = dose: 400.0 mg/kg/injection, schedule: Q01DX009 (ip), vehicle: Klucel (hydroxypropylcellulose) (HPC)
[6] = dose: 400.0 mg/kg/injection, schedule: Q04DX003 (ip), vehicle: Klucel (hydroxypropylcellulose) (HPC)
[7] = dose: 100.0 mg/kg/injection, schedule: Q04DX002 (ip), vehicle: Klucel (hydroxypropylcellulose) (HPC)
[8] = dose: 50.0 mg/kg/injection, schedule: Q01DX001 (ip), vehicle: saline
[9] = dose: 100.0 mg/kg/injection, schedule: Q01DX001 (ip), vehicle: saline
[10] = dose: 200.0 mg/kg/injection, schedule: Q01DX001 (ip), vehicle: saline
[11] = dose: 400.0 mg/kg/injection, schedule: Q01DX001 (ip), vehicle: saline
[12] = dose: 100.0 mg/kg/injection, schedule: Q04DX002 (ip), vehicle: saline
[13] = dose: 200.0 mg/kg/injection, schedule: Q04DX002 (ip), vehicle: saline
[14] = dose: 400.0 mg/kg/injection, schedule: Q04DX002 (ip), vehicle: saline
[15] = dose: 100.0 mg/kg/injection, schedule: Q01DX009 (ip), vehicle: saline
[16] = dose: 100.0 mg/kg/injection, schedule: Q04DX003 (ip), vehicle: saline
[17] = dose: 200.0 mg/kg/injection, schedule: Q01DX009 (ip), vehicle: saline
[18] = dose: 200.0 mg/kg/injection, schedule: Q04DX003 (ip), vehicle: saline
[19] = dose: 400.0 mg/kg/injection, schedule: Q01DX009 (ip), vehicle: saline
[20] = dose: 400.0 mg/kg/injection, schedule: Q04DX003 (ip), vehicle: saline
[21] = dose: 12.5 mg/kg/injection, schedule: Q04DX003 (ip), vehicle: saline
[22] = dose: 25.0 mg/kg/injection, schedule: Q04DX003 (ip), vehicle: saline
[23] = dose: 10.0 mg/kg/injection, schedule: Q01DX001 (ip), vehicle: carboxymethylcellulose (CMC)
[24] = dose: 20.0 mg/kg/injection, schedule: Q01DX001 (ip), vehicle: carboxymethylcellulose (CMC)
[25] = dose: 80.0 mg/kg/injection, schedule: Q01DX001 (ip), vehicle: carboxymethylcellulose (CMC)

Measured: T/C

COc1ccc(NC(=O)Nc2cc(Cl)ccc2OC)c(OC)c1
inactive: [1] 94 % of control | [2] 103 % of control | [3] 102 % of control | [4] 101 % of control | [5] 96 % of control | [6] 101 % of control

C[C@]1(O)CC[C@H]2[C@@H]3CCC4=CC(=O)CCC4=C3C=C[C@@]21C
inactive: [1] 96 % of control | dose: 100.0 mg/kg/injection, schedule: Q04DX003 (sc), vehicle: Klucel (hydroxypropylcellulose) (HPC) 98 % of control | [3] 96 % of control | dose: 200.0 mg/kg/injection, schedule: Q04DX003 (sc), vehicle: Klucel (hydroxypropylcellulose) (HPC) 95 % of control | [5] 110 % of control | dose: 400.0 mg/kg/injection, schedule: Q04DX003 (sc), vehicle: Klucel (hydroxypropylcellulose) (HPC) 101 % of control

O=C(NCc1ccccc1Cl)NC1CCCCC1
inactive: [7] 87 % of control | dose: 200.0 mg/kg/injection, schedule: Q04DX002 (ip), vehicle: Klucel (hydroxypropylcellulose) (HPC) 102 % of control | dose: 400.0 mg/kg/injection, schedule: Q04DX002 (ip), vehicle: Klucel (hydroxypropylcellulose) (HPC) 105 % of control

Cc1ccc(C(=O)c2ccc(Cl)cc2)cc1
inactive: [8] 90 % of control | [9] 98 % of control | [10] 102 % of control | [11] 96 % of control

COc1ccccc1NC(=O)c1ccc(Cl)cc1Cl
inactive: [1] 98 % of control | [2] 100 % of control | [3] 93 % of control | [4] 96 % of control | [5] 93 % of control | [6] 97 % of control

SC(S)(Cc1ccccc1)Cc1ccccc1
inactive: [12] 100 % of control | [13] 100 % of control | [14] 94 % of control

CCC1=NNC(=O)C1(Br)Br
inactive: dose: 5.0 mg/kg/injection, schedule: Q01DX001 (ip), vehicle: saline 105 % of control | dose: 10.0 mg/kg/injection, schedule: Q01DX001 (ip), vehicle: saline 100 % of control | dose: 20.0 mg/kg/injection, schedule: Q01DX001 (ip), vehicle: saline 100 % of control | dose: 40.0 mg/kg/injection, schedule: Q01DX001 (ip), vehicle: saline 97 % of control | dose: 80.0 mg/kg/injection, schedule: Q01DX001 (ip), vehicle: saline 103 % of control

CC1(C)C2C=CC1C(CO)(CO)C2 (stereo not given)
inactive: [15] 105 % of control | [16] 103 % of control | [17] 97 % of control | [18] 92 % of control | [19] 100 % of control | [20] 109 % of control

BrCc1cc(CBr)c(CBr)cc1CBr
inactive: dose: 12.5 mg/kg/injection, schedule: Q01DX009 (ip), vehicle: acetone 108 % of control | [21] 97 % of control | [22] 98 % of control and 114 % of control | dose: 50.0 mg/kg/injection, schedule: Q04DX003 (ip), vehicle: saline 95 % of control

O=C1OCC/C1=C\C1CO1 (stereo not given)
inactive: [12] 97 % of control | [13] 95 % of control | [14] 101 % of control

C=CC(C)C1CCC2(C)C3=C(C(=O)CC12C)C1(C)C/C(=N/O)C(O)C(C)(C)C1=C(O)C3=O (stereo not given)
inactive: [16] 98 % of control | [18] 95 % of control | [20] 98 % of control

CCCCCCC1CCCc2ccc(CCCC)cc21 (stereo not given)
inactive: [8] 110 % of control | [9] 106 % of control | [10] 101 % of control | [11] 101 % of control

CN(C)CCCN1c2ccccc2Sc2ccc(F)cc21
inactive: dose: 3.12 mg/kg/injection, schedule: Q04DX003 (ip), vehicle: saline 94 % of control | dose: 6.25 mg/kg/injection, schedule: Q04DX003 (ip), vehicle: saline 97 % of control | [21] 108 % of control | [22] 111 % of control

O=S1(=O)CC2(N3CCCC3)C3c4ccccc4C(c4ccccc43)C21 (stereo not given)
inactive: dose: 25.0 mg/kg/injection, schedule: Q04DX002 (ip), vehicle: Klucel (hydroxypropylcellulose) (HPC) 102 % of control | dose: 50.0 mg/kg/injection, schedule: Q04DX002 (ip), vehicle: Klucel (hydroxypropylcellulose) (HPC) 102 % of control | [7] 117 % of control

S=C1CC2CCCC(C2)N1 (stereo not given)
inactive: [23] 93 % of control | [24] 93 % of control | [25] 100 % of control

CC(=O)OC1CC2CC1C1C=CCC21 (stereo not given)
inactive: dose: 50.0 mg/kg/injection, schedule: Q01DX009 (ip), vehicle: saline with Tween-80 88 % of control | dose: 100.0 mg/kg/injection, schedule: Q01DX009 (ip), vehicle: saline with Tween-80 86 % of control | dose: 100.0 mg/kg/injection, schedule: Q04DX003 (ip), vehicle: saline sonified 94 % of control | dose: 200.0 mg/kg/injection, schedule: Q04DX003 (ip), vehicle: saline sonified 89 % of control

CCOc1ccc(NC(=O)c2cccc(C(=O)Nc3ccc(OCC)cc3)c2)cc1
inactive: [1] 104 % of control | [2] 91 % of control | [3] 101 % of control | [4] 98 % of control | [5] 95 % of control | [6] 93 % of control

COc1ccc(/C=C2\NC(=O)NC2=O)cc1Br
inactive: [1] 93 % of control | [3] 96 % of control | [5] 91 % of control

C=COC(=O)NC(CCC(=O)OC)C(=O)O (stereo not given)
inactive: [9] 92 % of control | [10] 101 % of control

CN(C)/C=N/Nc1ccc([N+](=O)[O-])cc1[N+](=O)[O-]
inactive: [1] 94 % of control | [2] 102 % of control | [3] 94 % of control | [4] 97 % of control | [5] 96 % of control | [6] 97 % of control

CC1COCC(C)N1 (stereo not given)
inactive: dose: 25.0 mg/kg/injection, schedule: Q01DX009 (ip), vehicle: saline 101 % of control | dose: 50.0 mg/kg/injection, schedule: Q01DX009 (ip), vehicle: saline 93 % of control | [15] 90 % of control | [17] 90 % of control | [19] 92 % of control

O=C1O[C@@H]2[C@@H](I)[C@@H]3C[C@@H]2[C@@H]1C3
inactive: dose: 5.0 mg/kg/injection, schedule: Q01DX001 (ip), vehicle: carboxymethylcellulose (CMC) 91 % of control | [23] 93 % of control | [24] 94 % of control | dose: 40.0 mg/kg/injection, schedule: Q01DX001 (ip), vehicle: carboxymethylcellulose (CMC) 91 % of control | [25] 93 % of control

C[N+](C)(C)/N=C/c1ccccc1
inactive: dose: 12.5 mg/kg/injection, schedule: Q01DX009 (ip), vehicle: Klucel (hydroxypropylcellulose) (HPC) 97 % of control | dose: 25.0 mg/kg/injection, schedule: Q01DX009 (ip), vehicle: Klucel (hydroxypropylcellulose) (HPC) 103 % of control | dose: 50.0 mg/kg/injection, schedule: Q01DX009 (ip), vehicle: Klucel (hydroxypropylcellulose) (HPC) 93 % of control and 96 % of control

Cc1ccc(N2C(=O)CC(NC3CCCCC3)C2=O)cc1 (stereo not given)
inactive: [1] 97 % of control | [3] 100 % of control | [5] 97 % of control
